# Data from publication PMC12670317, “Targeted NAT10 Degradation by PROTAC NP1192 Suppresses Hypoxia-Adaptive Glycolysis and Reinvigorates CD8^+ Effector T‑Cell Function for Synergistic Cancer Immunotherapy” (ACS Central Science, 2025).
# What was measured:
# [1] = test system: SiHa cells; experiment: Lactic acid, ATP and 2-NBDG uptake assays in SiHa cells; assay type: cell-based, human; settings: 20 μM, 36 h
# Description: SiHa and U14 cells (2 × 10^5 cells per well) were plated in 6-well plates and cultured in RPMI 1640 medium or DMEM supplemented with 10% FBS and 1% penicillin–streptomycin. After cell adherence, 20 μM NP1192 or DMSO was added and incubated for 36 h, and the assays were performed according to the instruction manuals for the Lactate Assay Kit (Nanjing Jiancheng, China), ATP Assay Kit (Beyotime, China), and 2-NBDG reagent (GlpBio, US). All data analyses were performed via GraphPad Prism 9, and the data are presented as the means ± SEMs.
# [2] = test system: SiHa cells; experiment: Colony formation assay in SiHa cells; assay type: cell-based, human; settings: pretreated 20 μM 36 h, 2 weeks
# Description: NAT10^± SiHa cells and SiHa cells treated with DMSO, Remodelin or NP1192 for 36 h were seeded into the wells of a 6-well microplate at identical densities of 2000 or 3000 cells per well. The cells were then incubated in the incubator for at least 2 weeks to form colonies. After the incubation period, the cells were fixed with formalin and then stained with crystal violet. The colonies were then counted via a microscope. The number and size of the colonies in the experimental groups were compared.
# [3] = test system: U14 cells subcutaneous xenograft; experiment: U14 subcutaneous xenograft model in C57BL/6J mice; assay type: in vivo
# Description: U14 cells (1 × 10^7 cells per mouse, approximately 100–150 μL of cell suspension) were implanted subcutaneously into the lateral lower dorsal surface of each mouse. The tumors were allowed to grow for 7 days, and the mice were then administered one of five treatments (group 1: U14 cells + DMSO; group 2: U14 cells + Remodelin; group 3: U14 cells + anti-PD-L1 antibody; group 4: U14 cells + NP1192; group 5: U14 cells + anti-PD-L1 antibody + NP1192). Each group of mice was assigned according to the principles of randomization and the blinding method. Tumors were measured every 2 days, and tumor volume was calculated via the following equation: volume = (width)^2 × length/2. Remodelin and NP1192 were injected into the peritumoral area every 2 days at a dose of 25 mg/kg, and the in vivo antimouse PD-L1 antibody (low endotoxin) was injected every 3 days at a dose of 2.5 mg/kg.
# A lentiviral vector expressing firefly luciferase was transduced into the U14 cells. After puromycin selection and cell expansion, U14 cells with stable firefly luciferase expression were generated. C57BL/6J mice were randomly divided into the following 5 groups for further experiments: group 1, U14 cells + DMSO; group 2, U14 cells + Remodelin; group 3, U14 cells + anti-PD-L1 antibody; group 4, U14 cells + NP1192; and group 5, U14 cells + anti-PD-L1 antibody + NP1192. After tumor stabilization, the luciferase substrate was injected into the mice every 2 days, and fluorescence values were obtained via a Maestro in vivo imaging system.
# [4] = biological target: T1, NAT10 (Mus musculus, UniProt Q8K224); experiment: NAT10 degradation in U14 cells, Western blot; assay type: cell-based; settings: murine U14 cervical cells, same treatment (20 μM), 36 h
# T1 construct: nearly 70% reduction in the NAT10 protein content in murine U14 cervical cells after 36 h; endogenous in cells; host or cells: U14 (murine cervical carcinoma cell line, RRID:CVCL_9U56)
# T1 sequence (Q8K224 1-1024): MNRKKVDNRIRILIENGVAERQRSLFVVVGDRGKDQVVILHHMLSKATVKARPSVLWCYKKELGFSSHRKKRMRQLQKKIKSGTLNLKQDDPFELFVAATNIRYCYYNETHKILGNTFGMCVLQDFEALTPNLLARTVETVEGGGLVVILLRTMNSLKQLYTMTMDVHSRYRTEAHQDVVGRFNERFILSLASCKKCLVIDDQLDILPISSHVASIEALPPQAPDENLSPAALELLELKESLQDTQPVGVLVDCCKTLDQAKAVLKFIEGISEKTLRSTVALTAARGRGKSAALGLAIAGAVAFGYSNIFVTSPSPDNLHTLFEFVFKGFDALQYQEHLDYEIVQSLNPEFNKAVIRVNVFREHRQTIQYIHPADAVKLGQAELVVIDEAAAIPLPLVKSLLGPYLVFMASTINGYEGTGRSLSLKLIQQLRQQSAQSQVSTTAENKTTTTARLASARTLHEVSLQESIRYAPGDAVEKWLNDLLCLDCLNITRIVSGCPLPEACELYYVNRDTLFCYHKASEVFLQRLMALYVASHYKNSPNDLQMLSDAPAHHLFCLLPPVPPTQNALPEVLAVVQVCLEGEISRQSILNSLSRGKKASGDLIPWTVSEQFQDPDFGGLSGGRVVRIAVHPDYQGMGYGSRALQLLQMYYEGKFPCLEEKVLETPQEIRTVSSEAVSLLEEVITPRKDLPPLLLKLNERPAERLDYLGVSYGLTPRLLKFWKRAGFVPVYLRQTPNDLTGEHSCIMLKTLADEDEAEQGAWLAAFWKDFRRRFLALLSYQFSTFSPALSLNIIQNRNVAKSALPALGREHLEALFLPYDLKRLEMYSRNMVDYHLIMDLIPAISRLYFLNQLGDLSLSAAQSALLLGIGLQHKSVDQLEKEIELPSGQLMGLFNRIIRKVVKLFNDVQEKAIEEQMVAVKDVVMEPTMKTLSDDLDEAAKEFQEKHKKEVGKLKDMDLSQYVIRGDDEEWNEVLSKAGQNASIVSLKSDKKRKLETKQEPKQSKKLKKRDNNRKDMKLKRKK
# Description: The human CCa cell line SiHa and the normal epithelial foreskin fibroblast line HFF-1 were purchased from the Cell Bank of the Chinese Academy of Sciences. Additionally, murine cervical carcinoma cell line U14 (RRID:CVCL_9U56) was purchased from Boster Company. HFF-1 and U14 cells were cultured in Dulbecco’s modified Eagle’s medium (DMEM) (Gibco, USA) supplemented with 10% heat-inactivated fetal bovine serum (FBS; Gibco, USA), while SiHa cells were incubated in RPMI 1640 medium (Gibco, USA) in a humid atmosphere with 5% CO2 at 37 °C. For hypoxia exposure, the cells were incubated in a sealed culture tank containing 5% CO2 and 0.1% O2 (MGC, Japan) for 36 h.
# RIPA lysis buffer (Beyotime, China) mixed with 1% protease inhibitor (Sigma, US) was added to the cells, and a sample of total protein was obtained and then loaded onto an 8% or 12% polyacrylamide gel. The gel was placed in a buffer solution, and an electric current was applied. The separated proteins were subsequently transferred from the gel onto a PVDF membrane. Next, the membrane was blocked with 5% milk for 1 h to prevent nonspecific antibody binding. […] The target proteins were detected via chemiluminescence with a ChemiDoc MP Imaging System (Bio-Rad, US).
smiles,measurement,setting,value
N#Cc1ccc(-c2csc(N(CCCCCCC(=O)N3CCN(c4cccc5c4C(=O)N(C4CCC(=O)NC4=O)C5=O)CC3)N=C3CCCC3)n2)cc1 (stereo not shown) [NP1192],lactate levels,[1],significantly decreased lactate levels
same,absorbtion rate (glucose analog 2-NBDG),"[1]; Figure 4K, DMSO 3.21",1.94
same,colony formation capacity,[2],substantial decrease in colony formation capacity
same,tumor volume,"[3]; 25 mg/kg every 2 days, compared to DMSO or Remodelin",significantly reduced tumor volume
same,weight loss or systemic toxicity,"[3]; U14 xenograft mice, 25 mg/kg",did not cause significant weight loss or systemic toxicity
same,reduction in tumor lactate levels,[3]; xenograft tumors after treatment for 1 week,more than 40%
same,reduction in NAT10 protein content,[4],~70%
